Measured values reported in patent publication US20260365677A1, “NEW CONTRAST AGENTS FOR USE IN DIAGNOSTIC IMAGING” (Bayer Aktiengesellschaft, priority 2022, published 2026).

How the values were obtained:
[1] = Complex stability (transmetallation) with Zn2+ in phosphate buffer; assay type: physicochemical; details: over 72 hours, 2.5 mM Zn^2+, 26 mM phosphate buffer, 37 °C
Protocol: The used method is described elsewhere (Laurent S et al., Stability of MRI paramagnetic contrast media: a proton relaxometric protocol for transmetallation assessment. Invest Radiol. 2001 February; 36(2):115-22). […] If test compounds are instable under these conditions, transmetallation during this test would lead to the formation of the Zn^2+ complex of the test item, while Gd^3+ is released and precipitated as highly insoluble GdPO4.
After 3d of incubation T1 relaxation time was observed.

[2] = 1.5 T, 37 °C, from Rohrer et al., cited from earlier work; for r1 plasma: bovine plasma instead of human plasma
[3] = Exploratory water solubility in 10 mM Tris-HCl buffer, pH 7.4; assay type: physicochemical; details: aqueous buffer (10 mM Tris-HCl), 20 °C
Protocol: The exploratory water solubility of the compounds is determined at room temperature (20 °C) in 0.5 mL buffer solution (10 mM Tris-HCl, pH 7.4) in the microcentrifuge tubes (Eppendorf, 2.0 mL safe-lock caps). The solid compounds were added stepwise to the buffer solution. More substance is added once all the suspended material is dissolved until an equilibrium between undissolved and dissolved substance is reached. The suspension was mixed using a shaker (Heidolph Reax 2000) and treated 5 min in an ultrasound bath (Bandelin, Sonorex Super RK255H). The Gadolinium concentration of the test substance in the clear solution is measured by ICP-MS.

[4] = Partition coefficient (log P butanol/buffer); assay type: physicochemical; details: 50 mM Tris-HCl, pH 7.4, 10 μM, room temperature
Protocol: The partition coefficient P (log P=log(Cbutanol/Cbuffer)) was determined in buffered aqueous solution (10 μM of compound in 0.5 mL 50 mM Tris-HCl saturated with Butanol, pH 7.4) and 1-butanol 1+1 and the mixture was shaken for 2 h at room temperature (n=3). The Gd-concentrations in each phase. CObutano, and Cbuffer were measured by ICP-MS (The Chemistry of Contrast Agents in Medical Magnetic Resonance Imaging” 2nd Ed. Merbach A S, Helm L, Toth E, eds. Hoboken, NJ: Wiley 2013).

[5] = of the administered dose; cited from earlier work
plasma proteins = details: cited from earlier work
[6] = test system: organic anion-transporting polypeptides (OATP1B1, OATP1B3); details: via OATP1B1, OATP1B3; cited from earlier work
[7] = test system: multidrug resistance-associated protein 2 (MRP2); details: via MRP2 (cMOAT); cited from earlier work
dentate nucleus = details: after repeated administration; cited from earlier work
focal liver lesions = details: patients with healthy liver or oncologic/cirrhotic liver patients; cited from earlier work

| SMILES | Transmetallation stability (in words) [1] | r1 plasma [2] [L/mmol/s] | r1 water [2] [L/mmol/s] | Solubility [3] [mM] | Log P [4] | secretion/excretion into the bile [5] | protein binding (plasma proteins) | uptake by hepatocytes [6] | excretion into the bile canaliculi [7] | signal intensity in the dentate nucleus (dentate nucleus) | detection and identification of focal liver lesions by liver MRI (focal liver lesions) |
| --- | --- | --- | --- | --- | --- | --- | --- | --- | --- | --- | --- |
| O=C([O-])CN1CCN(CC(=O)[O-])CCN([C@H](CO)[C@H](O)CO)CCN(CC(=O)[O-])CC1.[Gd+3] (racemic) [RC3, gadobutrol] | stable | 5.2 | 3.3 | – | – | – | – | – | – | – | – |
| CCOc1ccc(CC(CN(CCN(CC(=O)[O-])CC(=O)[O-])CC(=O)[O-])N(CC(=O)[O-])CC(=O)[O-])cc1.[Gd+3].[Na+].[Na+] (centres unmarked) [RC1, gadoxetate disodium] | – | 6.9 | 4.7 | >250 | −2.12 | up to 50% | approximately 10% | mainly taken up by hepatocytes via organic anion-transporting polypeptides (OATP1B1, OATP1B3) | primarily excreted into the bile canaliculi via the multidrug resistance-associated protein 2 | increased signal intensity in the dentate nucleus | able to detect and identify focal liver lesions with high specificity and sensitivity |
| O=C([O-])CN(CCN(CC(=O)[O-])CC(=O)[O-])CCN(CC(=O)[O-])C(COCc1ccccc1)C(=O)[O-].[Gd+3].[H+].[H+] (centres unmarked) [RC2, gadobenic acid] | – | 6.3 | 4.0 | – | −2.07 | – | approximately 10% | – | – | – | – |
